Columns and labels:
[1] = system: PBMCs; assay: Flow cytometry, FSC versus SSC gating, percentage of PBMCs; conditions: for percentage of PBMCs (FSC versus SSC gating): 24 hrs
[2] = system: PBMC stimulated by LPS; assay: ELISA cytokines, frozen PBMCs stimulated by LPS; format: cell-based, human; conditions: for production of LPS-stimulated IL-6 / production of LPS-stimulated IL-10 / production of LPS-stimulated IL-23 / production of LPS-stimulated TNF-α: dose response, three concentrations, donors D186, D317, D93, versus LPS alone
Experimental: PBMC were purified by Ficoll-Hypaque gradient centrifugation (Pharmacia, Piscataway, NJ) and stimulated after freshly isolated as described, or cryopreserved in cryoprotective medium consisting of 90% fetal bovine serum (FBS) in combination with 10% dimethyl sulfoxide (DMSO) at 20 to 30 million cells per vial, and thawed for later stimulation as described.
Cytokine dose-response analysis was performed using linear regression model testing dose (ordinal variable) and adjusting for the individual donors.

[3] = system: CD3+ T cells; assay: Flow cytometry, Propidium iodide/CD3 staining to verify drug toxicity; conditions: for toxicity in gated CD3+ T cells compared to DMSO treatment only: three concentrations, donors D186, D317, D93
[4] = system: 4T1 cells; assay: Killing of 4T1 cells; format: cell-based, mouse
[5] = system: Monocytes stimulated by LPS; assay: ELISA cytokines, monocytes stimulated by LPS; format: cell-based, human; conditions: for IL-16 levels / IL-6 / IL-10 / IL-23 / TNF-α: 5000 ng/mL, LPS; for IL-6 / IL-10 / IL-23 / TNF-α: donors D186, D317, D93
Text: For all experiments, peripheral blood mononuclear cells (PBMC) were isolated either from healthy blood donors as above or purchased from HemaCare as Leukopaks (D186, D317 and D93). PBMC were purified by Ficoll-Hypaque gradient centrifugation (Pharmacia, Piscataway, NJ) and stimulated after freshly isolated as described, or cryopreserved in cryoprotective medium consisting of 90% fetal bovine serum (FBS) in combination with 10% dimethyl sulfoxide (DMSO) at 20 to 30 million cells per vial, and thawed for later stimulation as described. For studies with enriched monocytes, PBMC were cultured in 1% FBS in RPMI 1640, and adhered to sterile plastic tissue culture plates for 1-2 hours; followed by washing off nonadherent PBMC. Remaining adherent monocytes were stimulated as described.
Isolated PBMCs were washed once in 1% FCS RPMI and re-suspended in RPMI-1640 (ThermoFisher Scientific) in 1-2% FCS RPMI. For monocyte isolation, 2×10^6 PBMCs per well were plated in 24-well tissue culture treated plate (ThermoFisher Scientific) at 1 ml each well. Monocytes were allowed to adhere in a 5% CO2 container at 37° C. for 2 hr. Nonadherent cells were removed by thorough washing 2 times with 1% FCS RPMI-1640.

[6] = system: CD14+ cells for monocytes; assay: Flow cytometry, Propidium iodide/CD14 staining to verify drug toxicity
[7] = system: T cells activated using beads; assay: ELISA cytokines, T cell activation with beads; format: cell-based, human; conditions: 5000 ng/ml; for IFN-γ production / IL10 production / IL-4 levels / TNF-α production: activated cells (Bead); for IL-2 production: activated cells, compared to negative control
Experimental: Conditioned media were tested undiluted, or diluted 1:3 and 1:9 to determine tumor necrosis factor (TNF) α concentration.

[8] = system: T cells; conditions: cells from mice; cited from earlier work
[9] = target: SARS-COV-2 Mpro (Severe acute respiratory syndrome coronavirus 2, UniProt P0DTD1); conditions: cited from earlier work

CC(C)(C)[C@H](NC(=O)C(F)(F)F)C(=O)N1C[C@H]2[C@@H]([C@H]1C(=O)N[C@H](C#N)C[C@@H]1CCNC1=O)C2(C)C [NMV, nirmatrelvir]
percentage of PBMCs (FSC versus SSC gating) ([1]; Donor 93, 1250 ng): 74.8%
percentage of PBMCs (FSC versus SSC gating) ([1]; Donor 93, 2500 ng): 76.2%
percentage of PBMCs (FSC versus SSC gating) ([1]; Donor 93, 5000 ng): 54.6%
percentage of PBMCs (FSC versus SSC gating) ([1]; Donor 186, 1250 ng): 52.8%
percentage of PBMCs (FSC versus SSC gating) ([1]; Donor 186, 2500 ng): 44.8%
percentage of PBMCs (FSC versus SSC gating) ([1]; Donor 186, 5000 ng): 47.7%
percentage of PBMCs (FSC versus SSC gating) ([1]; Donor 317, 1250 ng): 55.4%
percentage of PBMCs (FSC versus SSC gating) ([1]; Donor 317, 2500 ng): 64.4%
percentage of PBMCs (FSC versus SSC gating) ([1]; Donor 317, 5000 ng): 55.9%
Peripheral Blood Mononuclear Cells' viability ([1]; all different concentrations, three donors): Do Not Affect
IL-23 levels ([2]; 5000 ng/ml, LPS, three donors): Two of three donors already had no detectable IL-23 levels
production of LPS-stimulated IL-6 [2]: diminished
production of LPS-stimulated IL-10 [2]: diminished
production of LPS-stimulated IL-23 [2]: diminished
production of LPS-stimulated TNF-α [2]: diminished
cytokines except IL-1β (IL-6, IL-10, IL-23, TNF-α) ([2]; frozen PBMCs stimulated with LPS): decrease
cells double positive for Propidium iodide (PI) and CD3 (dead cells) ([3]; Donor 93, 1250 ng): 19.2%
cells double positive for Propidium iodide (PI) and CD3 (dead cells) ([3]; Donor 93, 2500 ng): 17.1%
cells double positive for Propidium iodide (PI) and CD3 (dead cells) ([3]; Donor 93, 5000 ng): 16.0%
cells double positive for Propidium iodide (PI) and CD3 (dead cells) ([3]; Donor 186, 1250 ng): 29.9%
cells double positive for Propidium iodide (PI) and CD3 (dead cells) ([3]; Donor 186, 2500 ng): 31.1%
cells double positive for Propidium iodide (PI) and CD3 (dead cells) ([3]; Donor 186, 5000 ng): 28.5%
cells double positive for Propidium iodide (PI) and CD3 (dead cells) ([3]; Donor 317, 1250 ng): 17.9%
cells double positive for Propidium iodide (PI) and CD3 (dead cells) ([3]; Donor 317, 2500 ng): 16.9%
cells double positive for Propidium iodide (PI) and CD3 (dead cells) ([3]; Donor 317, 5000 ng): 17.1%
toxicity in gated CD3+ T cells compared to DMSO treatment only [3]: similar
killing of 4T1 cells [4]: killed 4T1 cells in a dose responsive manner
IL-16 levels ([5]; donors 317 and 93): increasing levels
IL-6 [5]: decrease
IL-10 [5]: decrease
IL-23 [5]: decrease
TNF-α [5]: decrease
cells double positive for Propidium iodide (PI) and CD14 (dead cells) ([6]; Donor 93, 1250 ng): 0.90%
cells double positive for Propidium iodide (PI) and CD14 (dead cells) ([6]; Donor 93, 2500 ng): 0.74%
cells double positive for Propidium iodide (PI) and CD14 (dead cells) ([6]; Donor 93, 5000 ng): 0.64%
cells double positive for Propidium iodide (PI) and CD14 (dead cells) ([6]; Donor 186, 1250 ng): 0.75%
cells double positive for Propidium iodide (PI) and CD14 (dead cells) ([6]; Donor 186, 2500 ng): 1.28%
cells double positive for Propidium iodide (PI) and CD14 (dead cells) ([6]; Donor 186, 5000 ng): 0.74%
cells double positive for Propidium iodide (PI) and CD14 (dead cells) ([6]; Donor 317, 1250 ng): 0.37%
cells double positive for Propidium iodide (PI) and CD14 (dead cells) ([6]; Donor 317, 2500 ng): 0.31%
cells double positive for Propidium iodide (PI) and CD14 (dead cells) ([6]; Donor 317, 5000 ng): 0.32%
IFN-γ production [7]: lower
IL10 production [7]: lower
IL-4 levels [7]: lower when compared to all groups with activated cells
TNF-α production [7]: low
TNF-α production ([7]; listed as NMR): lower
IL-2 production [7]: elevated

CC(C)c1nc(CN(C)C(=O)N[C@H](C(=O)N[C@@H](Cc2ccccc2)C[C@H](O)[C@H](Cc2ccccc2)NC(=O)OCc2cncs2)C(C)C)cs1 [RTV, ritonavir]
percentage of PBMCs (FSC versus SSC gating) ([1]; Donor 93, 1250 ng): 60.4%
percentage of PBMCs (FSC versus SSC gating) ([1]; Donor 93, 2500 ng): 62.9%
percentage of PBMCs (FSC versus SSC gating) ([1]; Donor 93, 5000 ng): 55.9%
percentage of PBMCs (FSC versus SSC gating) ([1]; Donor 186, 1250 ng): 48.0%
percentage of PBMCs (FSC versus SSC gating) ([1]; Donor 186, 2500 ng): 51.3%
percentage of PBMCs (FSC versus SSC gating) ([1]; Donor 186, 5000 ng): 44.9%
percentage of PBMCs (FSC versus SSC gating) ([1]; Donor 317, 1250 ng): 61.3%
percentage of PBMCs (FSC versus SSC gating) ([1]; Donor 317, 2500 ng): 56.2%
percentage of PBMCs (FSC versus SSC gating) ([1]; Donor 317, 5000 ng): 57.4%
production of LPS-stimulated IL-6 [2]: no effect
production of LPS-stimulated IL-10 [2]: no effect
production of LPS-stimulated IL-23 [2]: no effect
production of LPS-stimulated TNF-α [2]: no effect
cells double positive for Propidium iodide (PI) and CD3 (dead cells) ([3]; Donor 93, 1250 ng): 19.5%
cells double positive for Propidium iodide (PI) and CD3 (dead cells) ([3]; Donor 93, 2500 ng): 19.8%
cells double positive for Propidium iodide (PI) and CD3 (dead cells) ([3]; Donor 93, 5000 ng): 19.5%
cells double positive for Propidium iodide (PI) and CD3 (dead cells) ([3]; Donor 186, 1250 ng): 27.9%
cells double positive for Propidium iodide (PI) and CD3 (dead cells) ([3]; Donor 186, 2500 ng): 28.9%
cells double positive for Propidium iodide (PI) and CD3 (dead cells) ([3]; Donor 186, 5000 ng): 28.6%
cells double positive for Propidium iodide (PI) and CD3 (dead cells) ([3]; Donor 317, 1250 ng): 18.1%
cells double positive for Propidium iodide (PI) and CD3 (dead cells) ([3]; Donor 317, 2500 ng): 17.5%
cells double positive for Propidium iodide (PI) and CD3 (dead cells) ([3]; Donor 317, 5000 ng): 17.8%
toxicity in gated CD3+ T cells compared to DMSO treatment only [3]: similar
killing of 4T1 cells [4]: killed 4T1 cells in a dose responsive manner
IL-16 levels ([5]; donor186): Slightly decreased
IL-16 levels ([5]; donors 317 and 93): increasing levels
IL-6 [5]: decrease
IL-10 [5]: decrease
IL-23 [5]: decrease
TNF-α [5]: decrease
IL-1β ([5]; monocytes, 5000 ng/ml): decreased
cells double positive for Propidium iodide (PI) and CD14 (dead cells) ([6]; Donor 93, 1250 ng): 0.90%
cells double positive for Propidium iodide (PI) and CD14 (dead cells) ([6]; Donor 93, 2500 ng): 1.12%
cells double positive for Propidium iodide (PI) and CD14 (dead cells) ([6]; Donor 93, 5000 ng): 0.81%
cells double positive for Propidium iodide (PI) and CD14 (dead cells) ([6]; Donor 186, 1250 ng): 2.14%
cells double positive for Propidium iodide (PI) and CD14 (dead cells) ([6]; Donor 186, 2500 ng): 1.71%
cells double positive for Propidium iodide (PI) and CD14 (dead cells) ([6]; Donor 186, 5000 ng): 1.71%
cells double positive for Propidium iodide (PI) and CD14 (dead cells) ([6]; Donor 317, 1250 ng): 0.42%
cells double positive for Propidium iodide (PI) and CD14 (dead cells) ([6]; Donor 317, 2500 ng): 0.38%
cells double positive for Propidium iodide (PI) and CD14 (dead cells) ([6]; Donor 317, 5000 ng): 0.44%
IL2, IFN-gamma and TNF-alpha secretion [8]: decreasing
IFN-γ production [7]: higher levels
IL10 production [7]: higher
IL-4 levels [7]: higher
TNF-α production [7]: high levels
IL-2 production [7]: elevated
activity against SARS-COV-2 Mpro [9]: lacks activity

Reference: patent US20260272891A1, “TREATMENT OF AUTOIMMUNE DISEASES AND CANCER WITH PROTEASE INHIBITORS” (Lundquist Institute for Biomedical Innovation at …, priority 2023, published 2026)
